# Reference: patent US20240252463A1, “METHODS OF TREATING FIBROTIC PATHOLOGIES” (Mayo Foundation for Medical Education and Research, priority 2018, published 2024)
# Key:
# CTGF, COL1A1, ACTA2, FN1 = assay: qPCR of profibrotic and matrix remodeling gene expression in IPF patient-derived fibroblasts; format: cell-based, human; conditions: 2 ng/mL TGFβ and 10 μM DHX, 24 hours
# Procedure: FIGS. 3A-3F DHX reverses fibroblast matrix deposition, contraction and stiffening. 3a. […] Genes which encode Connective tissue growth factor (CTGF), Collagen I (COL1A1), αSMA (ACTA2), and Fibronectin (FN1) are reduced by 24 hour treatment with DHX (10 μM), +/−SCH 39166 (3 μM). N=3 (****p<0.0001, ***p<0.001, *p<0.05 vs. 0.1% DMSO vehicle control) 3b. DHX reverses TGFβ-induced αSMA+ stress fiber formation. IMR-90 cells pre-stimulated with 2 ng/mL TGFβ for 48 hours and then treated with DHX (10 μM)+2 ng/mL TGFβ for an additional 24 hours prior to fixation. Cells which are positive for αSMA were quantified by a blinded investigator and noted in the bottom right corner, a minimum of 300 cells in each experiment were quantified. N=3. 3c. DHX reverses TGFβ-induced extracellular matrix accumulation. […] Cell derived matrix is measured using antibodies for Collagen I and Fibronectin. […] DHX attenuates IPF patient-derived fibroblast contractility measured by traction force microscopy. […] RMS tractions were determined in two independent experiments; box and whisker plots show min to max, quartile, and mean from one representative experiment (****p<0.0001, *p<0.05 vs. 0.1% DMSO vehicle control). […] The matrices were decellularized and passage 3 NHLFs were plated onto the matrices; after 24 hours RNA was collected and expression of profibrotic genes was analyzed. […]
# NIH-3T3 cells = assay: Matrix Remodeling Measured by Atomic Force Microscopy (NIH-3T3 cell-derived matrix); format: cell-based, mouse; conditions: TGFβ + ascorbic acid 72 hours, then 10 μM DHX additional 72 hours
# Procedure: Matrix Remodeling Measured by Atomic Force Microscopy: NIH-3T3 cells were plated to confluence onto gelatin coated (Cell Biologics) AFM compatible tissue culture dishes (Willco) in DMEM containing 10% FBS. After cells attached overnight media was replaced with DMEM containing 2% FBS, 2 ng/mL TGFβ, and 20 μg/mL ascorbic acid to promote matrix deposition. After 72 hours, measurements were made using a BioScope Catalyst AFM (Bruker, MA, USA). Microindentations were performed using a 2.5 μm radius sphere-tipped probe (Novascan, IA, USA) with a spring constant determined at ˜100 pN nm^−1 by thermal fluctuation method. For each dish, 3 different areas were analyzed. Force curves were acquired with MIRO 2.0 (NanoScope 9.1; Bruker) at an indentation rate of […] and a ramp size of […] on different points. 75 force curves were performed per cell dish (25 per area). The Young's modulus E was determined by the fitting of force curve by Hertz model using NanoScope Analysis software (Bruker) and considering Poisson's ratio of 0.5. […]
# The results above were consistent with DHX not only attenuating key aspects of fibroblast pro-fibrotic activation, but potentially shifting their phenotype toward one that promotes fibrosis clearance and resolution. […] After 72 hours the stiffness of the cells and their cell-derived matrix were measured using atomic force microscopy (AFM). […]
smiles,measurement,setting,value
"Oc1cc2c(cc1O)[C@H]1c3ccccc3CN[C@@H]1CC2 (racemic) [Dihydrexidine, dihydrexidine]","expression of matrix crosslinking, protease inhibitor and matrix degradation genes","CTGF, COL1A1, ACTA2, FN1",reversed the effects of TGFβ
same,stiffness of cells and cell-derived matrix (AFM),NIH-3T3 cells,significantly reduced the observed stiffness
